Test results taken from ChEMBL document CHEMBL3751695, “Cationic lipid-conjugated hydrocortisone as selective antitumor agent” (Eur J Med Chem, 2016).
Active and inactive are the calls of the source. No cut-off for these calls is given here.

Key:
[1] = Cell cycle arrest in mouse B16F10 cells assessed as accumulation at G2/M phase at 20 uM after 24 hrs by propidium iodide staining based flow cytometry (reference value: 15.2 %); format: functional; details: B16-F10
B16-F10 [2] = test: Antitumor activity in mouse B16F10 cells xenografted in C57BL/J mouse assessed as induction of apoptosis in tumor vasculature at 10 mg/kg, ip by TUNEL assay; format: functional, organism-based
B16-F10 [3] = test: Antitumor activity in mouse B16F10 cells xenografted in C57BL/J mouse assessed as increase of apoptotic protein cytochrome C level in tumor lysates at 10 mg/kg, ip by western blot analysis; format: functional, organism-based; details: Neoplasm, Lysate
[4] = Induction of apoptosis in mouse RAW264.7 cells assessed as viable cells at 20 uM after 24 hrs by annexin-V-FITC/propidium iodide staining based flow cytometry (reference value: 89.11 %); format: cell-based; details: read-out: Activity
B16-F10 [5] = test: Induction of apoptosis in mouse B16F10 cells assessed as increase in cytochrome C level at 10 uM after 36 hrs by western blot analysis; format: functional, cell-based
B16-F10 [6] = test: Antitumor activity in mouse B16F10 cells xenografted in C57BL/J mouse assessed as decrease in VEGFR2 expression in tumor at 10 mg/kg, ip by immunohistochemical analysis; format: functional, organism-based
MDA-MB-231 [7] = test: Induction of apoptosis in human MDA-MB-231 cells assessed as early apoptotic cells at 20 uM after 24 hrs by annexin-V-FITC/propidium iodide staining based flow cytometry (reference value: 0.58 %); format: functional
MCF7 = test: Cytotoxicity against human MCF7 cells after 72 hrs by MTT assay; format: functional, cell-based; details: MCF7, 72 h
B16-F10 [8] = test: Induction of apoptosis in mouse B16F10 cells assessed as early apoptotic cells at 20 uM after 24 hrs by annexin-V-FITC/propidium iodide staining based flow cytometry (reference value: 0.46 %); format: functional
B16-F10 [9] = test: Induction of apoptosis in mouse B16F10 cells assessed as increase in ratio of Bax/Bcl2 level at 20 uM after 36 hrs by western blot analysis (reference value: 0.2); format: functional
A549 [10] = test: Induction of apoptosis in human A549 cells assessed as early apoptotic cells at 20 uM after 24 hrs by annexin-V-FITC/propidium iodide staining based flow cytometry (reference value: 1.41 %); format: functional
[11] = Cell cycle arrest in mouse B16F10 cells assessed as accumulation at S phase at 20 uM after 24 hrs by propidium iodide staining based flow cytometry (reference value: 5.4 %); format: functional; details: B16-F10
B16-F10 [12] = test: Induction of apoptosis in mouse B16F10 cells assessed as late apoptotic cells at 20 uM after 24 hrs by annexin-V-FITC/propidium iodide staining based flow cytometry (reference value: 4.47 %); format: functional
B16-F10 [13] = test: Antitumor activity in mouse B16F10 cells xenografted in C57BL/J mouse assessed as increase of apoptotic protein p53 level in tumor lysates at 10 mg/kg, ip by western blot analysis; format: functional, organism-based; details: Neoplasm, Lysate
RAW264.7 [14] = test: Cytotoxicity against mouse RAW264.7 cells after 72 hrs by MTT assay; format: cell-based; details: RAW264.7, 72 h
A549 [15] = test: Induction of apoptosis in human A549 cells assessed as necrotic cells at 20 uM after 24 hrs by annexin-V-FITC/propidium iodide staining based flow cytometry (reference value: 3.23 %); format: functional
[16] = Cell cycle arrest in mouse B16F10 cells assessed as accumulation at subG0/G1 phase at 20 uM after 24 hrs by propidium iodide staining based flow cytometry (reference value: 40.7 %); format: functional; details: B16-F10
MDA-MB-231 [17] = test: Induction of apoptosis in human MDA-MB-231 cells assessed as viable cells at 20 uM after 24 hrs by annexin-V-FITC/propidium iodide staining based flow cytometry (reference value: 90.77 %); format: functional; details: MDA-MB-231, 24 h, read-out: Activity
B16-F10 [18] = test: Induction of apoptosis in mouse B16F10 cells assessed as increase in p53 expression at 20 uM after 36 hrs by […]; format: functional, cell-based
B16-F10 [19] = test: Induction of apoptosis in mouse B16F10 cells assessed as necrotic cells at 20 uM after 24 hrs by annexin-V-FITC/propidium iodide staining based flow cytometry (reference value: 1.41 %); format: functional
[20] = Cytotoxicity against mouse B16F10 cells at 10 and 20 uM after 72 hrs by MTT assay; format: functional, B16-F10
[21] = Induction of apoptosis in mouse NIH/3T3 cells assessed as viable cells at 20 uM after 24 hrs by annexin-V-FITC/propidium iodide staining based flow cytometry (reference value: 99.06 %); format: cell-based, NIH3T3; details: read-out: Activity
B16-F10 [22] = test: Induction of apoptosis in mouse B16F10 cells assessed as increased Bax expression at 20 uM after 36 hrs by western blot analysis; format: functional, cell-based
RAW264.7 [23] = test: Induction of apoptosis in mouse RAW264.7 cells assessed as early apoptotic cells at 20 uM after 24 hrs by annexin-V-FITC/propidium iodide staining based flow cytometry (reference value: 3.44 %); format: cell-based; details: raw264.7, 24 h
B16-F10 [24] = test: Antitumor activity in mouse B16F10 cells xenografted in C57BL/J mouse assessed as increase of apoptotic protein cleaved caspase 7 level in tumor lysates at 10 mg/kg, ip by western blot analysis; format: functional, organism-based; details: Neoplasm, Lysate
B16-F10 [25] = test: Effect on Bcl-2 expression in mouse B16F10 cells at 10 and 20 uM after 36 hrs by western blot analysis; format: functional, cell-based
RAW264.7 [26] = test: Induction of apoptosis in mouse RAW264.7 cells assessed as late apoptotic cells at 20 uM after 24 hrs by annexin-V-FITC/propidium iodide staining based flow cytometry (reference value: 5.64 %); format: cell-based; details: raw264.7, 24 h
MDA-MB-231 [27] = test: Induction of apoptosis in human MDA-MB-231 cells assessed as late apoptotic cells at 20 uM after 24 hrs by annexin-V-FITC/propidium iodide staining based flow cytometry (reference value: 3.25 %); format: functional
B16-F10 [28] = test: Antitumor activity in mouse B16F10 cells xenografted in C57BL/J mouse assessed as increase of apoptotic protein Bax level in tumor lysates at 10 mg/kg, ip by western blot analysis; format: functional, organism-based; details: Neoplasm, Lysate
B16-F10 [29] = test: Antitumor activity against mouse B16F10 cells xenografted in C57BL/J mouse assessed as inhibition of tumor growth at 10 mg/kg, ip; format: functional, organism-based
B16-F10 [30] = test: Induction of apoptosis in mouse B16F10 cells assessed as viable cells at 20 uM after 24 hrs by annexin-V-FITC/propidium iodide staining based flow cytometry (reference value: 93.66 %); format: functional; details: B16-F10, 24 h, read-out: Activity
B16-F10 [31] = test: Induction of apoptosis in mouse B16F10 cells assessed as increased Bax expression at 10 uM after 36 hrs by western blot analysis; format: functional, cell-based
RAW264.7 [32] = test: Induction of apoptosis in mouse RAW264.7 cells assessed as necrotic cells at 20 uM after 24 hrs by annexin-V-FITC/propidium iodide staining based flow cytometry (reference value: 1.81%); format: cell-based; details: raw264.7, 24 h
Mus musculus = test: Toxicity in C57BL/J mouse xenografted with mouse B16F10 cells assessed as animal survival at 10 mg/kg, ip measured upto 45 days post tumor inoculation; format: organism-based, B16-F10; details: in vivo, 1080 h
[33] = Induction of apoptosis in mouse NIH/3T3 cells assessed as early apoptotic cells at 20 uM after 24 hrs by annexin-V-FITC/propidium iodide staining based flow cytometry (reference value: 0.43 %); format: cell-based; details: nih3t3, 24 h

For `CCCCCCCCCCCCCCCC[N+](C)(CCCCCCCCCCCCCCCC)CCNC(=O)[C@@]1(O)CC[C@H]2[C@@H]3CCC4=CC(=O)CC[C@]4(C)[C@H]3[C@@H](O)C[C@@]21C.[Cl-]`, which Activity [1] is on record?
Its Activity is 41.4%.

And the Activity (B16-F10 [2])?
Its Activity is “Active”.

What about the Activity (B16-F10 [3]) of the same compound?
Its Activity is “Active”.

And the viability at 24 h, 20 µM [4]?
Its viability at 24 h, 20 µM is 94.2%.

What about the Activity (B16-F10 [5]) of the same compound?
The Activity was “Active”.

And the inhibition (B16-F10 [6])?
Its inhibition is “Active”.

And the Activity (MDA-MB-231 [7])?
Its Activity is 4.62%.

And the IC50 (MCF7)?
Its IC50 is 3.7 µM.

And the Activity (B16-F10 [8])?
Its Activity is 1.67%.

What about the Ratio (B16-F10 [9]) of the same compound?
The Ratio was 0.6.

And the Activity (A549 [10])?
The Activity was 7.53%.

What about the Activity [11] of the same compound?
Its Activity is 9.6%.

And the Activity (B16-F10 [12])?
Its Activity is 32.41%.

And the Activity (B16-F10 [13])?
Its Activity is “Active”.

What about the IC50 (RAW264.7 [14]) of the same compound?
The IC50 was 18.4 µM.

What about the Activity (A549 [15]) of the same compound?
Its Activity is 1.36%.

And the Activity [16]?
The Activity was 15.1%.

And the viability at 20 µM (MDA-MB-231 [17])?
Its viability at 20 µM is 50.7%.

And the Activity (B16-F10 [18])?
Its Activity is “Active”.

And the Activity (B16-F10 [19])?
The Activity was 8.52%.

And the Activity [20]?
The Activity was over 90%.

And the viability at 24 h, 20 µM [21]?
The viability at 24 h, 20 µM was 90.4%.

And the Activity (B16-F10 [22])?
The Activity was “Active”.

What about the Activity (RAW264.7 [23]) of the same compound?
The Activity was 1.63%.

What about the Activity (B16-F10 [24]) of the same compound?
The Activity was “Active”.

And the Activity (B16-F10 [25])?
The Activity was “inactive”.

And the Activity (RAW264.7 [26])?
Its Activity is 2.83%.

And the Activity (MDA-MB-231 [27])?
The Activity was 40.23%.

And the Activity (B16-F10 [28])?
The Activity was “Active”.

What about the inhibition (B16-F10 [29]) of the same compound?
The inhibition was “Active”.

And the viability at 20 µM (B16-F10 [30])?
The viability at 20 µM was 57.4%.

What about the Activity (B16-F10 [31]) of the same compound?
Its Activity is “Active”.

What about the Activity (RAW264.7 [32]) of the same compound?
The Activity was 1.36%.

And the Activity (Mus musculus)?
Its Activity is “Non-toxic”.

What about the Activity [33] of the same compound?
Its Activity is 2.08%.
